These are literature values, as cited in patent US20220008485A1, “Wound Honey” (priority 2020, published 2022).

The subject of data set [1] is Pseudomonas aeruginosa. To be noted: for MBC acid: acid alone; for MBC combination Acid/H2O2: acid part: acid combined with H2O2, in Bovine albumin + yeast extract 1%; for MBC combination Acid/H2O2: H2O2 part: in Bovine albumin + yeast extract 1%.
Data set [2] relates to Clostridium perfringens.
The test system of data set [3] is Bacillus cereus.
Data set [4] deals with Enterococcus hirae.
Data set [5] deals with Staphylococcus aureus.
For data set [6], the system named is Listeria monocytogenes.
The subject of data set [7] is spores of B. cereus. To be noted: 0.1% TC, HP at 600 MPA, 7° Celsius, infant formula.
Where [8] appears, read: in combination with silver nanoparticles.
Where [9] appears, read: acid combined with H2O2, in Bovine albumin + yeast extract 1%.
The mark [10] stands for this setting: H2O2 combined with Formic acid, in Bovine albumin + yeast extract 1%.

Where two headings read alike, the source gives them in different places.

As to `CC(=O)O` [Acetic, acetic acid], in data set [1], the MBC acid is 0.625% and the “MBC combination Acid/H2O2: acid part” value was 0.625%.

As for `O=CC=Cc1ccccc1` [Cinnamaldehyde, cinnamaldehyde], the “Minimal Inhibitory Concentration, Cinnamaldehyde” value is 0.065 mg/mL in data set [2] (alone) and 0.328 mg/mL in data set [3] (alone). Also, the “Minimal Inhibitory Concentration, Synergy Cinnamaldehyde” value in data set [2] (setting [8]) was 0.016 mg/mL; in data set [3] (setting [8]), 0.082 mg/mL.

For `O=CO` [Formic, formic acid], the MBC acid was 0.025% in data set [1], 5% in data set [4] (acid alone), 1.25% in data set [5] (acid alone) and 1.56% in data set [6] (acid alone). The “MBC combination Acid/H2O2: acid part” value in data set [1] is 0.025%; in data set [4] (setting [9]), 0.625%; in data set [5] (setting [9]), 0.312%; in data set [6] (setting [9]), 0.625%.

For `CCC(=O)O` [Propionic, propionic acid], in data set [1], the MBC acid was 0.5% and the “MBC combination Acid/H2O2: acid part” value was 0.50%.

With `O=C(O)CCC(=O)O` [Succinic, succinic acid], in data set [1], the MBC acid is 0.078% and the “MBC combination Acid/H2O2: acid part” value was 0.078%.

Consider `O=C/C=C/c1ccccc1` [TC, trans-cinnamaldehyde], for which the “Mean logarithmic decrease in spores of B. cereus” value in data set [7] (Week 1) was 1.5; in data set [7] (Week 2) it was 2; in data set [7] (Week 3) it was 3; in data set [7] (Week 4) it was 2.25; in data set [7] (Week 5) it was 3; in data set [7] (Week 6) it was 1.5.

For `OO` [hydrogen peroxide], the “MBC combination Acid/H2O2: H2O2 part” value in data set [1] (H2O2 combined with Acetic acid) was 0.39%; in data set [1] (H2O2 combined with Formic acid), 0.39%; in data set [1] (H2O2 combined with Propionic acid), 0.19%; in data set [1] (H2O2 combined with Succinic acid), 0.78%; in data set [4] (setting [10]), 3.12%; in data set [5] (setting [10]), 1.56%. Besides, the “MBC combination Acid/H2O2: H2O2 part” value in data set [6] (H2O2 combined with Formic (printed Fonnic) acid, in Bovine albumin + yeast extract 1%) was 0.78%. The MBC hydrogen peroxide in data set [1] (hydrogen peroxide alone) is given as 1.56%; in data set [4] (hydrogen peroxide alone), 12.5%; in data set [5] (hydrogen peroxide alone), 3.12%; in data set [6] (hydrogen peroxide alone) it was 6.25%.
